Literature values as cited in patent US20060099251A1, “Formulations of finasteride” (priority 2002, published 2006).

- solubility in water: practically insoluble
SMILES: CC(C)(C)NC(=O)[C@H]1CCC2[C@@H]3CCC4NC(=O)C=C[C@]4(C)C3CC[C@@]21C (stereo partly drawn) [Finasteride, 17β-(N-tert-butylcarbamoyl)-4-aza-5α-androst-1-en-3-one]
